Experimental data as given in patent publication US20250179045A1, “LPAR1 ANTAGONISTS AND USES THEREOF” (Contineum Therapeutics, Inc., priority 2021, published 2025).
Where two headings read alike, the source gives them in different places.

Molecular target: human LPA1 (Homo sapiens, UniProt Q92633)
Test: In vitro functional assay of lysophosphatidic acid receptor 1 activity (calcium flux)
Format: cell-based
Conditions: Fluo-4 NW calcium flux after lysophosphatidic acid (18:1) at EC80, compounds 100 pM to 10 μM
Description: In vitro functional assay of lysophosphatidic acid receptor 1 activity
Primary compound plates were prepared in 100% DMSO (Sigma-Aldrich), secondary compound plates were prepared at 10× concentration in DiVEM (Invitrogen), and tertiary compound plates were prepared at 3x concentration in assay buffer containing HBSS (no Ca^+2/Mg^+2, Invitrogen) and 0.1% BSA (Sigma-Aldrich). Fluo-4 NW calcium assay dye (Invitrogen) was prepared as per manufacturer's recommendations in assay buffer. B103 cells stably expressing human LPA1(J. Chun lab, UCSD) were grown to confluency in DMEM media (Invitrogen) containing 10% FBS (ATCC), […] (Sigma-Aldrich) and […] Geneticin (Sigma-Aldrich), and detached with Accutase (Sigma-Aldrich) prior to assay. The freshly detached cells were resuspended in growth media and plated in black, clear-bottom 96-well plates (Costar) containing compound (i.e., secondary compound plate) at a density of 5×10^4 cells/well. Once plated, cells were left at room temperature for 30 minutes and then transferred to a 37° C., […] incubator for 24 hours. After 24 hours, the growth media was then removed and freshly prepared Fluo-4 NW calcium assay dye was added to cells. Compounds (i.e. tertiary compound plates) were then added back to the dye/cells, returned to the incubator for 30 minutes, and then kept at room temperature for an additional 30 minutes. Finally, lysophosphatidic acid (18:1) at the EC80 concentration was added and calcium flux measured using FlexStation 3 (Molecular Devices). Sigmoidal dose-response curves were generated by measuring […] over 45 sec and calculating the area under the curve. Dose response curves and IC50 values were generated using Prism (GraphPad). Compounds were tested at a final concentration range of 100 pM to 10 μM in 0.10% DMSO.

[1] = B103 cells stably expressing human LPA1, read-out: LPA1 IC50

Sequence of human LPA1 (Q92633 whole entry): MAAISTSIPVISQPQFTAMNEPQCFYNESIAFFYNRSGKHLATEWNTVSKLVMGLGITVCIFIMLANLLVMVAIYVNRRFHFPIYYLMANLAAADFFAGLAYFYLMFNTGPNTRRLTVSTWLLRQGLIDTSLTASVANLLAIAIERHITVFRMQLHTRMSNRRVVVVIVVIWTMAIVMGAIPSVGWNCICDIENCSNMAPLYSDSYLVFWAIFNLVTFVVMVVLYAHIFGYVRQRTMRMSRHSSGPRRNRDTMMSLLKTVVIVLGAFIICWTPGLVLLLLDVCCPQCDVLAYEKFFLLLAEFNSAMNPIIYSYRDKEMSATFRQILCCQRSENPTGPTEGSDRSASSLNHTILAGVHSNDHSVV

## COc1nc(C)ccc1NC(=O)C1(c2ccccc2C(C)C)CNC(=O)C1 (stereo not shown) [Example 106, 3-(2-isopropylphenyl)-N-(2-methoxy-6-methylpyridin-3-yl)-5-oxopyrrolidine-3-carboxamide]
[1]
  IC50: 100 to 1000 nM

## COc1ccc(NC(=O)C2(c3ccccc3C(C)C)COC2)c(OC(F)F)n1 [Example 15, N-(2-(difluoromethoxy)-6-methoxypyridin-3-yl)-3-(2-isopropylphenyl)oxetane-3-carboxamide]
[1]
  IC50: < 10 nM

## COc1cc(C)ccc1NC(=O)C1(c2ccccc2C(C)C)CNC(=O)C1 (single isomer, unassigned) [Example 102-isomer A, 3-(2-isopropylphenyl)-N-(2-methoxy-4-methylphenyl)-5-oxopyrrolidine-3-carboxamide]
[1]
  IC50: 10 to 100 nM

## COc1ccc(NC(=O)C2(c3ccccc3C(C)C)CCNC(=O)C2)c(OC(F)F)n1 (stereo not shown) [Example 116, N-(2-(difluoromethoxy)-6-methoxypyridin-3-yl)-4-(2-isopropylphenyl)-2-oxopiperidine-4-carboxamide]
LPA1 IC50, B103 cells stably expressing human LPA1
  IC50: 100 to 1000 nM

## CC(C)c1ccccc1C1(C(=O)Nc2ccc(Br)cc2OC(F)F)CNC(=O)C1 (stereo not shown) [Example 105, N-(4-bromo-2-(difluoromethoxy)phenyl)-3-(2-isopropylphenyl)-5-oxopyrrolidine-3-carboxamide]
[1]
  IC50: 10 to 100 nM

## COc1cc(Cl)ccc1NC(=O)C1(c2ccccc2C(C)C)COC1 [Example 21, N-(4-chloro-2-methoxyphenyl)-3-(2-isopropylphenyl)oxetane-3-carboxamide]
[1]
  IC50: 10 to 100 nM

## COc1ccc(NC(=O)C2(c3ccccc3C(C)C)COC2)c(OC2CC2)n1 [Example 29, N-(2-cyclopropoxy-6-methoxypyridin-3-yl)-3-(2-isopropylphenyl)oxetane-3-carboxamide]
[1]
  IC50: 100 to 1000 nM

## CC(C)c1ccccc1C1(C(=O)Nc2ncc(Cl)cc2OC(F)F)COC1 [Example 22, N-(5-chloro-3-(difluoromethoxy)pyridin-2-yl)-3-(2-isopropylphenyl)oxetane-3-carboxamide]
[1]
  IC50: 10 to 100 nM

## Cc1ccc(NC(=O)C2(c3ccccc3C(C)C)CC(CO)C2)c(OC(F)F)n1 (stereo not shown) [Example 59, N-(2-(difluoromethoxy)-6-methylpyridin-3-yl)-3-(hydroxymethyl)-1-(2-isopropylphenyl)cyclobutane-1-carboxamide]
[1]
  IC50: 10 to 100 nM

## Cc1ccc(NC(=O)C2(c3ccccc3C(C)C)CC(CS(C)(=O)=O)C2)c(OC(F)F)n1 (stereo not shown) [Example 64, N-(2-(difluoromethoxy)-6-methylpyridin-3-yl)-1-(2-isopropylphenyl)-3-((methylsulfonyl)methyl)cyclobutane-1-carboxamide]
[1]
  IC50: 100 to 1000 nM

## Cc1ccc(NC(=O)C2(c3ccccc3C(C)C)CC(CCO)C2)c(OC(F)F)n1 (mixture of isomers) [Example 49, N-(2-(difluoromethoxy)-6-methylpyridin-3-yl)-3-(2-hydroxyethyl)-1-(2-isopropylphenyl)cyclobutane-1-carboxamide]
[1]
  IC50: 10 to 100 nM

## Cc1ccc(NC(=O)C2(c3ccccc3C(C)C)CC(O)(c3ccc(C#N)cn3)C2)c(OC(F)F)n1 (stereo not shown) [Example 50, 3-(5-cyanopyridin-2-yl)-N-(2-(difluoromethoxy)-6-methylpyridin-3-yl)-3-hydroxy-1-(2-isopropylphenyl)cyclobutane-1-carboxamide]
[1]
  IC50: 10 to 100 nM

## Cc1ccc(NC(=O)C2(c3ccccc3C(C)C)CC(C)(O)C2)c(OC(F)F)n1 (single isomer, unassigned) [Example 51-isomer B, N-(2-(difluoromethoxy)-6-methylpyridin-3-yl)-3-hydroxy-1-(2-isopropylphenyl)-3-methylcyclobutane-1-carboxamide]
[1]
  IC50: 100 to 1000 nM

## CC(C)c1ccccc1C1(C(=O)Nc2cnc(C(F)F)cc2OC(F)F)CC(=O)N(C)C1 (stereo not shown) [Example 4, N-(4-(difluoromethoxy)-6-(difluoromethyl)pyridin-3-yl)-3-(2-isopropylphenyl)-1-methyl-5-oxopyrrolidine-3-carboxamide]
[1]
  IC50: 100 to 1000 nM

## Cc1cc(OC(F)F)c(NC(=O)C2(c3ccccc3C(C)C)COC2)cn1 [Example 26, N-(4-(difluoromethoxy)-6-methylpyridin-3-yl)-3-(2-isopropylphenyl)oxetane-3-carboxamide]
[1]
  IC50: 10 to 100 nM

## COc1cc(CF)ccc1NC(=O)C1(c2ccccc2C(C)C)CNC(=O)C1 (stereo not shown) [Example 115, N-(4-(fluoromethyl)-2-methoxyphenyl)-3-(2-isopropylphenyl)-5-oxopyrrolidine-3-carboxamide]
[1]
  IC50: 100 to 1000 nM

## CC(C)c1ccccc1C1(C(=O)Nc2ccc(Br)cc2OC(F)F)CC(=O)N(C)C1 (stereo not shown) [Example 87, N-(4-bromo-2-(difluoromethoxy)phenyl)-3-(2-isopropylphenyl)-1-methyl-5-oxopyrrolidine-3-carboxamide]
[1]
  IC50: 10 to 100 nM

## Cc1ccc(NC(=O)C2(c3ccccc3C(C)C)CC(N3CC(O)C3)C2)c(OC(F)F)n1 (stereo not shown) [Example 42, N-(2-(difluoromethoxy)-6-methylpyridin-3-yl)-3-(3-hydroxyazetidin-1-yl)-1-(2-isopropylphenyl)cyclobutane-1-carboxamide]
[1]
  IC50: 100 to 1000 nM

## Cc1ccc(NC(=O)C2(c3ccccc3C(C)C)CNC(=O)C2)c(OC(F)F)c1 (stereo not shown) [Example 109, N-(2-(difluoromethoxy)-4-methylphenyl)-3-(2-isopropylphenyl)-5-oxopyrrolidine-3-carboxamide]
[1]
  IC50: 10 to 100 nM

## Cc1ccc(NC(=O)C2(c3ccccc3C(C)C)CC(Cc3nnn[nH]3)C2)c(OC(F)F)n1 (mixture of isomers) [Example 112, 3-((1H-tetrazol-5-yl)methyl)-N-(2-(difluoromethoxy)-6-methylpyridin-3-yl)-1-(2-isopropylphenyl)cyclobutane-1-carboxamide]
[1]
  IC50: 10 to 100 nM

## C#CC1(O)CCC(C(=O)Nc2ccc(OC)nc2OC(F)F)(c2ccccc2C(C)C)CC1 (stereo not shown) [Example 82, N-(2-(difluoromethoxy)-6-methoxypyridin-3-yl)-4-ethynyl-4-hydroxy-1-(2-isopropylphenyl)cyclohexane-1-carboxamide]
[1]
  IC50: < 10 nM

## COc1cc(C)ncc1NC(=O)C1(c2ccccc2C(C)C)COC1 [Example 36, 3-(2-isopropylphenyl)-N-(4-methoxy-6-methylpyridin-3-yl)oxetane-3-carboxamide]
[1]
  IC50: > 1000 nM

## COc1ccc(NC(=O)C2(c3ccccc3C(C)C)CCC3(CC2)OCCO3)c(OC(F)F)n1 [Example 79, N-(2-(difluoromethoxy)-6-methoxypyridin-3-yl)-8-(2-isopropylphenyl)-1,4-dioxaspiro[4.5]decane-8-carboxamide]
[1]
  IC50: 100 to 1000 nM

## COc1nc(NC(=O)C2(c3ccccc3C(C)C)CNC(=O)C2)c(OC(F)F)cc1Cl (stereo not shown) [Example 12, N-(5-chloro-3-(difluoromethoxy)-6-methoxypyridin-2-yl)-3-(2-isopropylphenyl)-5-oxopyrrolidine-3-carboxamide]
[1]
  IC50: > 1000 nM

## CC(C)c1ccccc1C1(C(=O)Nc2ccc(F)cc2OC(F)F)COC1 [Example 27, N-(2-(difluoromethoxy)-4-fluorophenyl)-3-(2-isopropylphenyl)oxetane-3-carboxamide]
[1]
  IC50: 10 to 100 nM

## CNS(=O)(=O)C1CC(C(=O)Nc2ccc(C)nc2OC(F)F)(c2ccccc2C(C)C)C1 (stereo not shown) [Example 70, N-(2-(difluoromethoxy)-6-methylpyridin-3-yl)-1-(2-isopropylphenyl)-3-(N-methylsulfamoyl)cyclobutane-1-carboxamide]
[1]
  IC50: 10 to 100 nM

## COc1ccc(NC(=O)[C@]2(c3ccccc3C(C)C)C[C@H](CC(N)=O)C2)c(OC(F)F)n1 [Example 117, cis-3-(2-amino-2-oxoethyl)-N-(2-(difluoromethoxy)-6-methoxypyridin-3-yl)-1-(2-isopropylphenyl)cyclobutane-1-carboxamide]
[1]
  IC50: 10 to 100 nM

## COc1cc(Br)cnc1NC(=O)C1(c2ccccc2C(C)C)COC1 [Example 23, N-(5-bromo-3-methoxypyridin-2-yl)-3-(2-isopropylphenyl)oxetane-3-carboxamide]
[1]
  IC50: 100 to 1000 nM

## Cc1ccc(NC(=O)C2(c3ccccc3C(C)C)CC(=O)N(C)C2)c(OC(F)F)c1 (stereo not shown) [Example 110, N-(2-(difluoromethoxy)-4-methylphenyl)-3-(2-isopropylphenyl)-1-methyl-5-oxopyrrolidine-3-carboxamide]
[1]
  IC50: 10 to 100 nM

## Cc1ccc(NC(=O)C2(c3ccccc3C(C)C)CC(CC(=O)O)C2)c(OC(F)F)n1 (mixture of isomers) [Example 45, 2-(3-((2-(difluoromethoxy)-6-methylpyridin-3-yl)carbamoyl)-3-(2-isopropylphenyl)cyclobutyl)acetic acid]
[1]
  IC50: < 10 nM

## CC(C)c1ccccc1C1(C(=O)Nc2ncc(Br)cc2OC(F)F)COC1 [Example 24, N-(5-bromo-3-(difluoromethoxy)pyridin-2-yl)-3-(2-isopropylphenyl)oxetane-3-carboxamide]
[1]
  IC50: 10 to 100 nM
